Experiments:
[1] = system: testosterone-induced BPH; experiment: Treatment of testosterone-induced BPH in rats; assay type: in vivo, rat; conditions: for Decrease in volume of total prostate / Decrease in volume of ventral prostate / Decrease in weight of total prostate / Decrease in weight of ventral prostate: % of the increase preinduced with testosterone
Procedure: Treatment of Testosterone-Induced BPH in Rats
Male rats are implanted with catheters and receive 18.75 mg per rat of testosterone, subcutaneously at D-4.
From day D0 to day D21, they receive rimonabant daily, at the dose of either 10 mg/kg per os, or of 30 mg/kg per os.
At day D22, the animals are sacrificed and their prostate is analyzed.
This decrease is evaluated as % of the increase preinduced with testosterone.

[2] = system: BPH in spontaneously hypertensive rats; experiment: Treatment of BPH in spontaneously hypertensive rats (SHR), qualitative histological study of the prostate lobes; assay type: in vivo, rat; conditions: SHR rats treated for 28 days, from 10 mg/kg onward
Procedure: Treatment of BPH in Spontaneously Hypertensive Rats
The spontaneously hypertensive rat (SHR) model as described by Golomb et al., J. Androl. (2000), 21(1), 58-64 and Matituahou et al., J. Androl. (2003) 24(2), 263-9 is used.
A qualitative histological study of the prostate lobes is carried out on untreated SHR rats and on rats treated for 28 days with 10 mg/kg or 30 mg/kg of rimonabant.

[3] = rimonabant 10 mg/kg/d per os, D0 to D21
[4] = rimonabant 30 mg/kg/d per os, D0 to D21

Cc1c(C(=O)NN2CCCCC2)nn(-c2ccc(Cl)cc2Cl)c1-c1ccc(Cl)cc1 [Rimonabant, N-piperidino-5-(4-chlorophenyl)-1-(2,4-dichlorophenyl)-4-methylpyrazole-3-carboxamide]
Weight and volume of the prostate ([1]; chronic treatment with rimonabant, 10 or 30 mg/kg per os daily, D0 to D21): significant decrease | Decrease in volume of total prostate [1, 3]: 64% | Decrease in volume of ventral prostate [1, 3]: 88% | Decrease in weight of total prostate [1, 3]: 54% | Decrease in weight of ventral prostate [1, 3]: 87% | Decrease in volume of total prostate [1, 4]: 87% | Decrease in volume of ventral prostate [1, 4]: 100% | Decrease in weight of total prostate [1, 4]: 73% | Decrease in weight of ventral prostate [1, 4]: 95% | Histology of the ventral prostate lobes [2]: the tissues are normal and non-hypertrophied

C[C@]12CC[C@H]3[C@@H](CCC4=CC(=O)CC[C@@]43C)[C@@H]1CC[C@@H]2O [testosterone]
Increase in weight and volume of the total prostate and of the ventral prostate ([1]; pretreatment with testosterone 18.75 mg per rat, subcutaneously at D-4): approximately 35%

From US20090124643A1, “Use of a Cannabinoid CB1 Receptor Antagonist for Preparation of Drugs Useful for the Prevention and Treatment of Benign Prostatic Hypertrophy” (SANOFI-AVENTIS, priority 2006, published 2009)
